Measured values published in publication PMC5722316, “Synthesis of novel purpurealidin analogs and evaluation of their effect on the cancer-relevant potassium channel KV10.1” (PLoS ONE, 2017).

Columns and labels:
Format in all cases: cell-based
[1] = tested on: hTERT RPE-1; experiment: Proliferation assay (IncuCyte live-cell imaging, cell confluency); settings: Homo sapiens, hTERT-RPE1, indicative, from AUC vs concentration (2-100 μM), read-out: Antiproliferative effect (IC50)
Protocol: (§1) Cell lines SH-SY5Y (ACC 209), DU145 (ACC 261), LNCaP (ACC 256) and NIH-3T3 (ACC 59) were purchased from DSMZ (Germany). MDA-MB-435S (HTB 129) and hTERT RPE-1 (CRL 4000) were obtained from ATCC (USA). Cell lines were cultured in their recommended media Supplemented with 10% or 15% FCS (PAA laboratories, Germany) at 37°C in humidified 5% CO2 atmosphere. All media were purchased from ThermoFisher Scientific (Waltham, Massachusetts, United States).
(§2) Cell proliferation, cytotoxicity and apoptosis were assessed in a 96-well microtiter plate by live-cell imaging using an IncuCyte Zoom System (Essen BioScience, UK). Cell proliferation was monitored in terms of cell confluency (%). Cell cytotoxicity was assessed by the CellTox Green Dye assay (Promega, Madison, Wisconsin, USA). The Incucyte Caspase-3/7 apoptosis assay (Essen BioScience, UK) was used to evaluate the effect of compound 5 on the apoptotic pathway. As negative controls media supplemented with 0.05% of DMSO were used.
(§3) Live-cell imaging data were collected from the IncuCyte Zoom software and analyzed using GraphPad Prism 5 software. Proliferation was measured as Phase Object Confluence (%), cytotoxicity and apoptosis were measured as Green Object Count (1/mm^2). All data are represented as mean S.E.M of n = 6 different wells.
(§4) The following concentrations of compound 5 were added to the different cell lines, 100 μM, 50 μM, 20 μM, 10 μM, 5 μM and 2 μM to assess its effect on cell proliferation (S1 Fig) and cytotoxicity (S2 Fig). Indicative IC50-values for the proliferation assays were obtained by plotting the areas under the curve (AUC × 10^3) against the tested compound 5 concentrations and by fitting the curve with a logistic dose-response equation. The EC50-values for the cytotoxicity assays were calculated correspondingly (S3 Fig). Although more data points would be necessary to calculate precise IC50 and EC50-values, it is clear that compound 5 inhibits the proliferation and induces cytotoxicity in all the tested cell lines in the low to middle micromolar range.

[2] = tested on: MDA-MB-435S; experiment: as above; settings: Homo sapiens, indicative, from AUC vs concentration (2-100 μM), read-out: Antiproliferative effect (IC50)
Protocol: as §1, §2, §3, §4

[3] = tested on: NIH-3T3; experiment: as above; settings: Mus musculus, NIH3T3, indicative, from AUC vs concentration (2-100 μM), read-out: Antiproliferative effect (IC50)
Protocol: as §1, §2, §3, §4

[4] = tested on: DU145; experiment: as above; settings: Homo sapiens, DU-145, indicative, from AUC vs concentration (2-100 μM), read-out: Antiproliferative effect (IC50)
Protocol: as §1, §2, §3, §4

[5] = tested on: LNCAP; experiment: as above; settings: Homo sapiens, indicative, from AUC vs concentration (2-100 μM), read-out: Antiproliferative effect (IC50)
Protocol: as §1, §2, §3, §4

[6] = tested on: SH-SY5Y; experiment: as above; settings: Homo sapiens, indicative, from AUC vs concentration (2-100 μM), read-out: Antiproliferative effect (IC50)
Protocol: as §1, §2, §3, §4

[7] = tested on: SH-SY5Y, DU145, LNCaP, NIH-3T3, MDA-MB-435S and hTERT RPE-1 cell lines; experiment: Incucyte Caspase-3/7 apoptosis assay; settings: 100 μM, 50 μM and 20 μM; all the cell lines
Protocol: as §1, §2
as §3, with “wells. […]” for “wells.”

- IC50 [2]: 28.1 µM
- IC50 [4]: 28.9 µM
- IC50 [5]: 26.4 µM
- IC50 [6]: 12.2 µM
SMILES: COc1ccc(C(=O)NCCc2cc(Br)c(OCCCN(C)C)c(Br)c2)cc1Cl [Compound 5, 3-Chloro-N-[3,5-dibromo-4-[3-(dimethylamino)propoxy]phenethyl]-4-methoxybenzamide]
- IC50 [1]: 12.5 µM
- IC50 [3]: 7.13 µM
- caspase-3/7 activity (induction of the apoptotic pathway) [7]: caspase-3/7 activity was detected
